Reference: patent publication US20210113733A1, “FIBROUS WOUND DRESSING COMPRISING AN ANTISEPTIC” (Coloplast A/S, priority 2018, published 2021)

Test: Octenidine extractable from impregnated hydrophilic polyurethane foam, no surfactant
Format: physicochemical
Conditions: for Release % water: 24 h extraction in water, UV 285 nm
Method: Discs of hydrophilic polyurethane foam were impregnated by applying a known volume of octenidine-containing solution to the surface of the foam and letting it soak into the foam matrix in a liquid:foam ratio which allowed the foam to be saturated with liquid. Afterwards, the impregnated foam was dried at RT overnight.
The dried foam disc was immersed in the extraction media for 24 h and the extracted octenidine concentration was determined by UV at 285 nm

Release % phosphate buffer (23 mM) (plain foam impregnated with 0.1 w % OCT solution, 24 h extraction): 7%
Release % water (plain foam impregnated with 0.1 w % OCT solution): 5%
Release % water (plain foam impregnated with 0.5 w % OCT solution): 1.5%
Release % water (plain foam impregnated with 1.0 w % OCT solution): 1.5%
Structure (SMILES): CCCCCCCCN=c1ccn(CCCCCCCCCCn2ccc(=NCCCCCCCC)cc2)cc1 [Octenidine, octenidine]
